Test results as given in US8809001B2, “High throughput assays for inhibitors and activators of PAQR receptors” (University of Florida Research Foundation, Inc., priority 2007, dated 2014).
Where two headings read alike, the source gives them in different places.

How the values were obtained:
mPRα = molecular target: T1, mPRα (Homo sapiens, UniProt Q86WK9); test: cell-based; conditions: for agonist activity on mPRα (in words): FET3-lacZ, steroids up to 10 μM; for activation of mPRα, alterations at the 17 and 21 positions of the pregnane ring (in words): further analysis of mPRα (pRS316 plasmid, 2% galactose per FIG. 7C)
T1 construct: Full length and truncated mPRγ and mPRα were expressed in wild type cells grown in 2% galactose from the pGREG536 vector; expressed in transfected cells; host or cells: Saccharomyces cerevisiae (BY4742 wild type; also gpa mutants), GAL1-driven plasmids (TPI1 promoter in pJK90)
T1 sequence (Q86WK9 1-346): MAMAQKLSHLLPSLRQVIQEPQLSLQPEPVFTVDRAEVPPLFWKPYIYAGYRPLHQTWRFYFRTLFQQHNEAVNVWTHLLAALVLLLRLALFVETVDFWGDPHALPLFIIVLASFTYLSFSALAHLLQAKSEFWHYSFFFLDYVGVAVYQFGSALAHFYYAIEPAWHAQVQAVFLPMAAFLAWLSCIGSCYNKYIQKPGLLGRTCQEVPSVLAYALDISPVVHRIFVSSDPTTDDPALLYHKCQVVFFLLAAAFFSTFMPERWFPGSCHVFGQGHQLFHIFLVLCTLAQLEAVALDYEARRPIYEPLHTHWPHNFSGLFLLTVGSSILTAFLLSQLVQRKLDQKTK
Description: Plasmids and primers. Human PAQRs were cloned into various vectors by PCR from commercially/publically available cDNAs. […] The OST4 open reading frame in pJK90 was replaced with the PAQR6 and mPRα open reading frames by gap repair. Primers for all cloning reactions are listed herein. Proteins expressed in pYES260 have an N-terminal 6×-histidine tag followed by a TEV protease cleavage site. Proteins expressed in pGREG536 have an N-terminal 7×-HA tag. Proteins expressed in the pRS316 vector are untagged. The pYES260, pRS316 and pGREG536 vectors allow for galactose-inducible expression via the GAL1 promoter. […] A pRS316-based plasmid containing the STE2 gene under the control of the GAL1 promoter (Feng et al., 2000) was kindly provided by Dr. Nicholas G. Davis (Wayne State University).
Assays and growth conditions. Strains were maintained using standard protocol and grown in synthetic defined (SD) media with the appropriate amino acids to match the auxotrophies of the individual strains. […] In brief, overnights of cells grown in SD-glucose media were re-inoculated into iron-deficient LIM to induce the expression of FET3. […] All ligands were added to the growth medium upon re-inoculation into LIM. For experiments in which steroids were added as ligands, steroids were added from ethanol stocks and “untreated” controls are actually treated with an equal volume of ethanol to control for vehicle effects. […] All experiments were performed at least three times and a representative experiment is shown. EC50 values were obtained using the web-based BioDataFit software using sigmoidal curve-fitting. (web site changbioscience.com/stat/ec50.html)

FET3 = test: FET3-lacZ reporter in wild type yeast carrying empty expression plasmid; format: cell-based, Saccharomyces cerevisiae; conditions: no human PAQR
Description: (§1) Assays and growth conditions. Strains were maintained using standard protocol and grown in synthetic defined (SD) media with the appropriate amino acids to match the auxotrophies of the individual strains. Low Iron Medium (LIM) contains EDTA to limit iron-bioavailability and its composition has been previously described (Kupchak et al., 2007). […] In brief, overnights of cells grown in SD-glucose media were re-inoculated into iron-deficient LIM to induce the expression of FET3. 2% galactose was used as a carbon source to induce full expression of PAQR genes driven by the GAL1 promoter, while 0.05% galactose/1.95% raffinose was used for reduced PAQR expression. All ligands were added to the growth medium upon re-inoculation into LIM. For experiments in which steroids were added as ligands, steroids were added from ethanol stocks and “untreated” controls are actually treated with an equal volume of ethanol to control for vehicle effects. Cells were allowed to grow to mid-log phase at which time the activity of the FET3 gene was monitored using a FET3-lacZ promoter-reporter construct. lacZ activities are presented as a percentage of activity seen in untreated cells expressing the appropriate empty expression vector control. For individual experiments, each data point has been done in triplicate and the error bars represent +/−1 standard deviation. All experiments were performed at least three times and a representative experiment is shown. EC50 values were obtained using the web-based BioDataFit software using sigmoidal curve-fitting. (web site changbioscience.com/stat/ec50.html)

mPRγ = molecular target: T2, mPRγ (Homo sapiens, UniProt Q9NXK6); test: FET3-lacZ reporter repression in yeast expressing mPRγ; format: cell-based; conditions: for agonist activity on mPRγ (in words): FET3-lacZ, steroids up to 10 μM
T2 construct: Full length and truncated mPRγ and mPRα were expressed in wild type cells grown in 2% galactose from the pGREG536 vector; expressed in transfected cells; host or cells: Saccharomyces cerevisiae (BY4742 wild type; also gpa mutants), GAL1-driven plasmids
T2 sequence (Q9NXK6 1-330): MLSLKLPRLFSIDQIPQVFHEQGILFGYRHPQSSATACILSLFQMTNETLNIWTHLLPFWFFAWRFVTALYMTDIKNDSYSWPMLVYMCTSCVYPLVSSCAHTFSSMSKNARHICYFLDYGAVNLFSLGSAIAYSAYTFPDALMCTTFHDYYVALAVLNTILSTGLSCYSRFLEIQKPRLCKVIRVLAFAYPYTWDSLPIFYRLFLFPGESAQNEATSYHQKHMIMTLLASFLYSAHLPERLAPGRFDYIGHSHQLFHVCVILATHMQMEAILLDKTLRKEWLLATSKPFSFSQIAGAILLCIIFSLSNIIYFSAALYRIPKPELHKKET
Description: Plasmids and primers. Human PAQRs were cloned into various vectors by PCR from commercially/publically available cDNAs. PAQRs were cloned into the pYES260 (Melcher, 2000), pRS316 (Liu et al., 1992) or pGREG536 (Jansen et al., 2005) expression vectors using gap repair. The pJK90 plasmid containing a Dual Topology Reporter (DTR)-tagged OST4 gene driven by the constitutive TPI1 promoter was kindly provided by Dr. Gunnar von Heijne (Stockholm University) (Kim et al., 2003). The OST4 open reading frame in pJK90 was replaced with the PAQR6 and mPRα open reading frames by gap repair. Primers for all cloning reactions are listed herein. Proteins expressed in pYES260 have an N-terminal 6×-histidine tag followed by a TEV protease cleavage site. Proteins expressed in pGREG536 have an N-terminal 7×-HA tag. Proteins expressed in the pRS316 vector are untagged. The pYES260, pRS316 and pGREG536 vectors allow for galactose-inducible expression via the GAL1 promoter. […] The FET3-lacZ plasmid was previously described (Kupchak et al., 2007). Plasmids derived from pADM4 carrying hyperactive alleles of Gpa1p (Gpa1p^Q323L) (Slessareva et al., 2006) and Gpa2p (Gpa2p^Q300L) (Harashima et al., 2002) driven by the ADH1 promoter were kindly provided by Dr. Henrik Dohlman (UNC Chapel Hill). A pRS316-based plasmid containing the STE2 gene under the control of the GAL1 promoter (Feng et al., 2000) was kindly provided by Dr. Nicholas G. Davis (Wayne State University).
as §1

[1] = read-out: EC50 for the activation of mPRα

Row | Compound | agonist activity on mPRα (in words) (mPRα) | agonist activity on mPRγ (in words) (mPRγ) | activation of mPRα, alterations at the 17 and 21 positions of the pregnane ring (in words) (mPRα) | EC50 (mPRα; [1]) | also measured
1 | CC#C[C@]1(O)CC[C@H]2[C@@H]3CCC4=CC(=O)CCC4=C3[C@@H](c3ccc(N(C)C)cc3)C[C@@]21C [RU-486, Mifepristone] | weak agonist | weak agonist | – | – | EC50 (mPRα; EC50, mPRα, ligand alone): 11 µM; effect of ligand on FET3 in cells carrying empty expression plasmid (FET3): had no effect; increase in the EC50 of progesterone for the activation of mPRγ (mPRγ; exposure of cells to 100 nM RU-486): 15 fold; antagonism of mPRγ (mPRγ; in the presence of 100 nM progesterone, effect disappears at higher concentrations): weakly antagonizes; EC50 (mPRγ; mPRγ column of Table 4, ligand alone): 6.8 µM; EC50 (mPRγ; mPRγ, weak agonist at high concentrations): > 5 µM
2 | C[C@]12CC[C@H]3[C@@H](CCC4=CC(=O)CC[C@@]43C)[C@@H]1CC[C@@H]2O [testosterone] | no agonist activity | no agonist activity | – | – | increase of the EC50 of progesterone for mPRγ (mPRγ; in the presence of 10 μM of the named steroid): 10 fold
3 | C[C@]12CCC(=O)C=C1CC[C@@H]1[C@@H]2[C@@H](O)C[C@@]2(C)[C@H]1CC[C@]2(O)C(=O)CO [11β,17α,21-trihydroxyprogesterone] | – | – | ineffective agonist | – | –
4 | C[C@]12CC[C@H]3[C@@H](CCC4=CC(=O)CC[C@@]43C)[C@@H]1CC[C@@H]2C(=O)CO [21-hydroxyprogesterone] | – | – | similarly effective activators | ~0.01 µM | –
5 | C[C@]12CCC(=O)C=C1CC[C@@H]1[C@@H]2CC[C@@]2(C)[C@H]1CC[C@]2(O)C(=O)CO [17α,21-dihydroxyprogesterone] | – | – | similarly effective activators | ~0.01 µM | –
